Laboratory results published in BindingDB's records for doi:10.1021/jm060947x (Institut D'Investigacions Biomèdiques August Pi I, 2007).

Legend:
[1] = Displacement of [3H]SCH 23390 from dopamine D1 receptor in lamb striatum membrane after 1 hr
[2] = Displacement of [3H]YM 09151-2 from dopamine D2 receptor in lamb striatum membrane after 2 hrs
[3] = Displacement of [3H]R-PIA from adenosine A1 receptor in lamb striatum membrane after 1 hr

`CN1C[C@H](C(=O)N[C@@H](Cc2ccc([N+](=O)[O-])cc2)C(=O)N[C@@H](Cc2ccc(F)cc2)C(=O)N2CCCC(C(N)=O)C2)C=C2c3cccc4[nH]cc(c34)C[C@H]21` (stereo partly drawn) [(6aR,9R)-N-((S)-1-((S)-1-(3-carbamoylpiperidin-1-yl)-3-(4-fluorophenyl)-1-oxopropan-2-ylamino)-3-(4-nitrophenyl)-1-oxopropan-2-yl)-7-methyl-4,6,6a,7,8,9-hexahydroindolo[4,3-fg]quinoline-9-carboxamide] gave a Kd [1] of 700 nM and a Kd [2] of 20 nM.
In the case of `CC(C)[C@H](NC(=O)[C@H](CCC1CCCCC1)NC(=O)[C@@H]1C=C2c3cccc4[nH]cc(c34)C[C@H]2N(C)C1)C(=O)N1CCC[C@H]1C(N)=O` [(6aR,9R)-N-((S)-1-((S)-1-((S)-2-carbamoylpyrrolidin-1-yl)-3-methyl-1-oxobutan-2-ylamino)-4-cyclohexyl-1-oxobutan-2-yl)-7-methyl-4,6,6a,7,8,9-hexahydroindolo[4,3-fg]quinoline-9-carboxamide], the Kd [1] is reported as 1200 nM.
Molecule `CC(C)[C@H](NC(=O)[C@@H]1C=C2c3cccc4[nH]cc(c34)C[C@H]2N(C)C1)C(=O)N[C@@H](Cc1ccc([N+](=O)[O-])cc1)C(=O)N1CCC[C@H]1C(N)=O` [(6aR,9R)-N-((S)-1-((S)-1-((S)-2-carbamoylpyrrolidin-1-yl)-3-(4-nitrophenyl)-1-oxopropan-2-ylamino)-3-methyl-1-oxobutan-2-yl)-7-methyl-4,6,6a,7,8,9-hexahydroindolo[4,3-fg]quinoline-9-carboxamide] has a Kd [1] of 7800 nM.
`CC(C)[C@H](NC(=O)[C@H](Cc1ccc([N+](=O)[O-])cc1)NC(=O)[C@@H]1C=C2c3cccc4[nH]cc(c34)C[C@H]2N(C)C1)C(=O)N1c2ccccc2C[C@H]1C(N)=O` [(6aR,9R)-N-((S)-1-((S)-1-((S)-2-carbamoylindolin-1-yl)-3-methyl-1-oxobutan-2-ylamino)-3-(4-nitrophenyl)-1-oxopropan-2-yl)-7-methyl-4,6,6a,7,8,9-hexahydroindolo[4,3-fg]quinoline-9-carboxamide] showed a Kd [3] of 100 nM and a Kd [2] of 2000 nM.
For `CC(C)[C@H](NC(=O)[C@H]1C=C2c3cccc4[nH]cc(c34)C[C@H]2N(C)C1)C(=O)N[C@@H](Cc1ccc([N+](=O)[O-])cc1)C(=O)N1CCC[C@H]1C(N)=O` [(6aR,9S)-N-((S)-1-((S)-1-((S)-2-carbamoylpyrrolidin-1-yl)-3-(4-nitrophenyl)-1-oxopropan-2-ylamino)-3-methyl-1-oxobutan-2-yl)-7-methyl-4,6,6a,7,8,9-hexahydroindolo[4,3-fg]quinoline-9-carboxamide], the Kd [1] was 700 nM.
Work on `CC(C)[C@H](NC(=O)[C@@H]1C=C2c3cccc4[nH]cc(c34)C[C@H]2N(C)C1)C(=O)N[C@@H](Cc1ccc(F)cc1)C(=O)N1CCC[C@H]1C(N)=O` [(6aR,9R)-N-((S)-1-((S)-1-((S)-2-carbamoylpyrrolidin-1-yl)-3-(4-fluorophenyl)-1-oxopropan-2-ylamino)-3-methyl-1-oxobutan-2-yl)-7-methyl-4,6,6a,7,8,9-hexahydroindolo[4,3-fg]quinoline-9-carboxamide] yielded a Kd [1] of 600 nM and a Kd [2] of 16000 nM.
